Consider eleven compounds from patent publication US20020142463A1, “Method for the mass propagation of adventitious roots of ginseng, camphor ginseng and wild ginseng by tissue culture and the improvement of their saponin content” (priority 2001, published 2002).

For test [1], the system named is adventitious root of cultivated ginseng. Description: Effect of added growth regulator on adventitious root propagation (cultivated ginseng). The test is classed as cell-based, Panax ginseng C.A. Meyer. On the set-up: Cultivated ginseng (Increment rate of biomass): unit not given here. The conditions noted are these: for Cultivated ginseng (Increment rate of biomass): MS media, 3% sugar, pH6.0. The method, then:
(§1) After adding 3% of sugar to the MS media and adjusting pH6.0, basal medium were made by adding 1 mg/L, 2 mg/L, 3 mg/L, 5 mg/L of each of the IBA, NAA and BSAA as auxin. These basal mediums were divided into a 1 L flask and a 5 L bioreactor.

In test [2] the test system is adventitious root of wild ginseng. Description: Effect of added growth regulator on adventitious root propagation (wild ginseng). The test is classed as cell-based. The conditions noted are these: MS media, 3% sugar, pH6.0. On the set-up: unit not given here. How it is done: as §1
The test system of test [3] is root tissue of cultivated ginseng, camphor ginseng, and wild ginseng. In words: Effect of growth regulator pretreatment before culturing on saponin content and saponin ratio. Type of test: cell-based. The conditions noted are these: pretreatment 1-10 hours before culturing at 1-100 mg/L. How it is done:
(§2) The measurement of saponin content was followed by the standard method for the analysis of ginseng constituent of The Korean Ginseng Research Institute.
Among growth regulators, BA(benzyl adenine) 2iP, zeatin, […], TDZ, kinetin which are included in cytokinin groups was treated 1-10 hours before culturing the root tissue of cultivated ginseng, camphor ginseng, and wild ginseng at the concentration of 1-100 mg/L. Immediate after the pretreatment the saponin and the diol:triol content were compared and analyzed.

Test [4] deals with adventitious root of cultivate ginseng, camphor ginseng, wild ginseng. Description: Effect of jasmonic acid and methyl jasmonic acid treatment on the saponin content of adventitious root in balloon shape bioreactor. The test is classed as cell-based.
Source text: as §2
While culturing the adventitious root of cultivate ginseng, camphor ginseng, wild ginseng in a balloon shape bioreactor, the saponin content in the adventitious root was examined at the initial time, 10 days before harvest, and after harvest with the treatment of various concentrations of jasmonic acid and methyl jasmonic acid.
The experiment was conducted under the conditions of pH 6.0 and the MS media added with 3% sugar and 2.0 mg/L IBA.
The saponin content in the adventitious root was measured for the root treated by various concentrations of jamonic acid or methyl jamonic acid of 0, 1, 2, 5, 10 mg/L 10 days before harvest and the root washed by tap water obtained from the MS media not containing sugar or the treated root by tap water which includes jasmonic acid or methyl jasmonic acid, for one week.

As for `O=C(O)Cc1cccc2ccccc12` [NAA, naphthalemeacetic acid], the “Cultivated ginseng (Increment rate of biomass)” value (“Cultivated ginseng” for short) came out at 3.2 in test [1] (growth regulator 1 mg/L), 7.2 in test [1] (growth regulator 2 mg/L), 6.7 in test [1] (growth regulator 3 mg/L) and 4.2 in test [1] (growth regulator 5 mg/L). Also, the “Wild ginseng (Increment rate of biomass)” value in test [2] (growth regulator 1 mg/L) was 3.4; in test [2] (growth regulator 2 mg/L), 6.8; in test [2] (growth regulator 3 mg/L), 6.2; in test [2] (growth regulator 5 mg/L), 3.8.
As to `c1ccc(CNc2ncnc3nc[nH]c23)cc1` [BA, benzyl adenine], in test [3], the saponin content is on record as 1.23 and the triol/diol came out at 1.63.
Turning to `O=C(O)Cc1c[se]c2ccccc12` [BSAA, benzo [b] selenienyl acetic acid], in test [1] (concentration of 2-3 mg/L, text summary of Table 1 (cultivated and wild ginseng)), the “increment of the biomass (in words)” value was “remarkable increment”. Also, the “Cultivated ginseng” value in test [1] (growth regulator 1 mg/L) was 5.3; in test [1] (growth regulator 2 mg/L) it was 13.2; in test [1] (growth regulator 3 mg/L), 11.4; in test [1] (growth regulator 5 mg/L), 4.8. The “Wild ginseng (Increment rate of biomass)” value in test [2] (growth regulator 1 mg/L) came to 5.0; in test [2] (growth regulator 2 mg/L), 12.5; in test [2] (growth regulator 3 mg/L), 11.7; in test [2] (growth regulator 5 mg/L), 3.9.
Consider `CC/C=C\C[C@H]1C(=O)CC[C@@H]1CC(=O)O` [Jasmonic acid, jasmonic acid], for which the “Ginsenoside content Rb Group” value was 13.29 mg. 1 g drymass in test [4] (jasmonic acid 1 mg/L), 24.19 mg. 1 g drymass in test [4] (jasmonic acid 2 mg/L), 34.69 mg. 1 g drymass in test [4] (jasmonic acid 5 mg/L) and 54.29 mg. 1 g drymass in test [4] (jasmonic acid 10 mg/L). In addition, the “Ginsenoside content Rg Group” value is on record as 2.83 mg. 1 g drymass in test [4] (jasmonic acid 1 mg/L), 4.46 mg. 1 g drymass in test [4] (jasmonic acid 2 mg/L), 4.15 mg. 1 g drymass in test [4] (jasmonic acid 5 mg/L) and 5.53 mg. 1 g drymass in test [4] (jasmonic acid 10 mg/L). Moreover, the “Ginsenoside content Total content” value in test [4] (jasmonic acid 1 mg/L) was determined as 16.09 mg. 1 g drymass; in test [4] (jasmonic acid 2 mg/L), 28.69 mg. 1 g drymass; in test [4] (jasmonic acid 5 mg/L) it was 38.82 mg. 1 g drymass; in test [4] (jasmonic acid 10 mg/L) it was 59.87 mg. 1 g drymass. For the same compound, the Rb/Rg in test [4] (jasmonic acid 1 mg/L) is recorded as 4.68; in test [4] (jasmonic acid 2 mg/L) it was 5.45; in test [4] (jasmonic acid 5 mg/L), 8.43; in test [4] (jasmonic acid 10 mg/L), 9.83.
As for jasmonic acid, in test [3], the saponin content amounted to 6.50 and the triol/diol was found to be 2.40.
On the same counts, the results for `CC/C=C\CC1C(=O)CCC1CC(=O)OC` (stereo not drawn) [methyl jasmonic acid] are 6.50 and 2.40.
Regarding `O=C(Nc1ccccc1)Nc1cnns1` [TDZ], the “remarks: effect on the saponin components” value (shortened to “remarks: effect”) in test [3] is listed as “zeatin show similar”.
Regarding `O=C(O)CCCc1c[nH]c2ccccc12` [IBA], the “Cultivated ginseng” value came to 4.5 in test [1] (growth regulator 1 mg/L), 6.7 in test [1] (growth regulator 2 mg/L), 6.5 in test [1] (growth regulator 3 mg/L) and 3.8 in test [1] (growth regulator 5 mg/L). Besides, the “Wild ginseng (Increment rate of biomass)” value in test [2] (growth regulator 1 mg/L) stood at 4.3; in test [2] (growth regulator 2 mg/L) it was 6.8; in test [2] (growth regulator 3 mg/L), 5.7; in test [2] (growth regulator 5 mg/L), 4.2.
Regarding `C/C(=C\CNc1ncnc2[nH]cnc12)CO` [zeatin], the “remarks: effect” value in test [3] was “zeatin show similar”.
`CC(C)=CCNc1ncnc2nc[nH]c12` [2iP]: in test [3], the “remarks: effect” value was “zeatin show similar”.
On the same count and under the same terms, as for `c1coc(CNc2ncnc3[nH]cnc23)c1` [kinetin], the entry is “zeatin show similar”.
